Data taken from patent US7713994B2 (Wyeth LLC, priority 2005, dated 2010).

What was measured:
[1] = target: T1, cyclin D1/cdk 4 enzyme (Homo sapiens, UniProt P11802); experiment: CDK4 ELISA kinase assay (phospho-Rb ser 795 detection); type: biochemical; details: In Vitro Enzyme Assay, cyclin D1/cdk 4, read-out: CDK4 IC50
T1 construct: made in house; host or cells: Sf9 insect cells, recombinant baculovirus
Procedure, shortened: (§1)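 GST-Rb C-terminal fragment coated on wells; kinase reaction: 200 μM ATP, 0.5 mg/ml BSA, HEPES pH 7.5, 10 mM MgCl2, baculovirus/Sf9 cyclin-CDK, 30° C, 1 h. Readout anti-phospho-Rb Ser795, HRP, TMB, A450. Test compound 10 ug/ml final.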

[2] = test system: BT474; experiment: Cytotoxicity assay (SRB), BT474; type: cell-based; details: Homo sapiens, BT-474, 144 h, BT474 cells, 6 days, SRB; read-out: In Vitro Cellular Activity IC50 BT474
Procedure, shortened: (§2)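 Growth inhibition, SRB method: 3-day continuous compound exposure for HCT-116, LoVo and MCF-7 and 6-day exposure for BT474. Absorbance at 540 nm reflects surviving cell protein relative to controls.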

[3] = target: T2, cyclin B/CDK1 enzyme (Homo sapiens, UniProt P06493); experiment: CDK1 ELISA kinase assay (phospho-Rb ser 795 detection); type: biochemical; details: In Vitro Enzyme Assay, cyclin B/CDK1, read-out: CDK1 IC50
T2 construct: purchased New England BioLabs; host or cells: Sf9 insect cells, recombinant baculovirus
Procedure, shortened: as §1

[4] = test system: MCF-7; experiment: Cytotoxicity assay (SRB), MCF-7; type: cell-based; details: Homo sapiens, MCF7, 72 h, MCF-7 cells, 3 days, SRB; read-out: In Vitro Cellular Activity IC50 MCF-7
Procedure, shortened: as §2

[5] = target: T3, cyclin E/CDK2 enzyme (Homo sapiens, UniProt P24941); experiment: CDK2 ELISA kinase assay (phospho-Rb ser 795 detection); type: biochemical; details: In Vitro Enzyme Assay, cyclin E/CDK2, read-out: CDK2 IC50
T3 construct: made in house; host or cells: Sf9 insect cells, recombinant baculovirus
Procedure, shortened: as §1

[6] = test system: LoVo; experiment: Cytotoxicity assay (SRB), LoVo; type: cell-based; details: Homo sapiens, LoVo, 72 h, LoVo cells, 3 days, SRB; read-out: In Vitro Cellular Activity IC50 LOVO
Procedure, shortened: as §2

[7] = test system: HCT-116; experiment: Cytotoxicity assay (SRB), HCT-116; type: cell-based; details: Homo sapiens, HCT-116, 72 h, HCT116 cells, 3 days, SRB; read-out: In Vitro Cellular Activity IC50 HCT116
Procedure, shortened: as §2

T1 sequence (P11802 whole entry, species assumed): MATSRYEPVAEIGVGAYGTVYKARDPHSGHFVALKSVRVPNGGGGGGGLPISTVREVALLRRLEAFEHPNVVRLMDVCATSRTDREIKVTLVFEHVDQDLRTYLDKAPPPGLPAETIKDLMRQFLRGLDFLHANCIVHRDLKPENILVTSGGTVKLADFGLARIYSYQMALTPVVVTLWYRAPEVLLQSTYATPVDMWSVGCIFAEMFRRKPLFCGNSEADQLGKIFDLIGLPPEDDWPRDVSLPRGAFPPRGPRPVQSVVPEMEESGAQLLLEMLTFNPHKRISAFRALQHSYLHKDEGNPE
T1 sequence (P24385 whole entry partner, species assumed): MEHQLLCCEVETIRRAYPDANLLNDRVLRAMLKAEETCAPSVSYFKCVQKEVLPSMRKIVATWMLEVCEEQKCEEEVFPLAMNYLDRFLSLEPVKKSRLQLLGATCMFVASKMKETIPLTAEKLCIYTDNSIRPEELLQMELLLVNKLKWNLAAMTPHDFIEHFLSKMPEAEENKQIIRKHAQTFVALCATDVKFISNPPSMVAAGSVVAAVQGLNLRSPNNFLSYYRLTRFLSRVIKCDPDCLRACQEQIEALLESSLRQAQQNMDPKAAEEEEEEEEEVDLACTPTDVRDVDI
T2 sequence (P06493 whole entry): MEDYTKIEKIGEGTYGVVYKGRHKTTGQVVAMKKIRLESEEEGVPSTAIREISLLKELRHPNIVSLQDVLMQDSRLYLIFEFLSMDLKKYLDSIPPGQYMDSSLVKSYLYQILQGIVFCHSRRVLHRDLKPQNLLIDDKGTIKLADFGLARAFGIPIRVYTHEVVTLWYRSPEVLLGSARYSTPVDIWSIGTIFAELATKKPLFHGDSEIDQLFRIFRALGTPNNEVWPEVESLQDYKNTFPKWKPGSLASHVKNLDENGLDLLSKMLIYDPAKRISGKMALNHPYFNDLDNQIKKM
T2 sequence (P14635 whole entry partner): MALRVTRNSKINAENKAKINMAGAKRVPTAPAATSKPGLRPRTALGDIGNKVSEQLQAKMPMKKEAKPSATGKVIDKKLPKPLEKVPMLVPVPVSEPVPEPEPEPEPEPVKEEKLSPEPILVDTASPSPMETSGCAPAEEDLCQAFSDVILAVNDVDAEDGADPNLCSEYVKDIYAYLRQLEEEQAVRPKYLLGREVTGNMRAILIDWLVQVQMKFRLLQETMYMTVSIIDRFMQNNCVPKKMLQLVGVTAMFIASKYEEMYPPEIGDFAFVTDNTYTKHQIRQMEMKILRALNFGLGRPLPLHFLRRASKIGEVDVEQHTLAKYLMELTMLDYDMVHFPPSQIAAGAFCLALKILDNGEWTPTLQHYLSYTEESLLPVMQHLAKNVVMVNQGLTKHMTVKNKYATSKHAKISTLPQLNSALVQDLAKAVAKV

Structure (SMILES) | IC50 [1] [µM] | IC50 [3] [µM] | IC50 [5] [µM] | IC50 [2] [µM] | IC50 [4] [µM] | IC50 [6] [µM] | IC50 [7] [µM]
N#Cc1ccc(-c2ccc3c(c2)C(=CNc2ccc(CN4CCCC4)cc2)C(=O)NC3=O)cc1 [Example 839, 4-{1,3-Dioxo-4-[(4-pyrrolidin-1-ylmethyl-phenylamino)-methylene]-1,2,3,4-tetrahydro-isoquinolin-6-yl}-benzonitrile] | 3.3 | > 50 | 38.8 | 27.2 | 21.6 | > 50 | 14.1
O=C1NC(=O)c2ccc(-c3ccc(CO)cc3)cc2C1=CNc1ccc(CN2CCCC2)cc1 [Example 840, 6-(4-Hydroxymethyl-phenyl)-4-[(4-pyrrolidin-1-ylmethyl-phenylamino)-methylene]-4H-isoquinoline-1,3-dione] | 3 | > 50 | 31 | > 50 | 40 | > 50 | 19
O=C1NCc2cc(Br)ccc2C1=CNc1ccc(CN2CCCC2)cc1 [Example 847, 7-Bromo-4-[(4-pyrrolidin-1-ylmethyl-phenylamino)-methylene]-1,4-dihydro-2H-isoquinolin-3-one] | 5 | > 50 | > 50 | 8.1 | 6 | 4.9 | 4.3
CN1CCN(c2ccc(NC=C3C(=O)NCc4cc(-c5cccs5)ccc43)cc2)CC1 [Example 848, 4-{[4-(4-Methyl-piperazin-1-yl)-phenylamino]-methylene}-7-thiophen-2-yl-1,4-dihydro-2H-isoquinolin-3-one] | > 50 | 44.4 | > 50 | 13.8 | 10.9 | 13.3 | 7.1
COc1ccc(NC=C2C(=O)NCc3cc(-c4ccc[nH]4)ccc32)cc1 [Example 849, 4-[(4-Methoxy-phenylamino)-methylene]-7-(1H-pyrrol-2-yl)-1,4-dihydro-2H-isoquinolin-3-one] | > 50 | > 50 | 40.6 | 6.8 | 4.3 | 15.9 | 12.8
COc1ccc(NC=C2C(=O)NCc3cc(-c4cc[nH]c4)ccc32)cc1 [Example 850, 4-[(4-Methoxy-phenylamino)-methylene]-7-(1H-pyrrol-3-yl)-1,4-dihydro-2H-isoquinolin-3-one] | > 50 | > 50 | 19.7 | 46.5 | > 50 | 24.2 | 16
CN1CCN(c2ccc(NC=C3C(=O)NC(=O)c4ccc(-c5ccn(CCCC#N)c5)cc43)cc2)CC1 [Example 855, 4-[3-(4-{[4-(4-Methyl-piperazin-1-yl)-phenylamino]-methylene}-1,3-dioxo-1,2,3,4-tetrahydro-isoquinolin-6-yl)-pyrrol-1-yl]-butyronitrile] | 0.31 | > 50 | > 50 | 43.3 | 42.6 | > 50 | > 50
N=C(N)c1ccc(NC=C2C(=O)NCc3cc(Br)ccc32)cc1 [Example 861, 4-[(7-Bromo-3-oxo-2,3-dihydro-1H-isoquinolin-4-ylidenemethyl)-amino]-benzamidine] | 14.3 | > 50 | 3.6 | 45.4 | > 50 | > 50 | > 50
O=C1NCc2cc(Br)ccc2C1=CNc1ccc(CCO)cc1 [Example 863, 7-Bromo-4-{[4-(2-hydroxy-ethyl)-phenylamino]-methylene}-1,4-dihydro-2H-isoquinolin-3-one] | 20.1 | 37.1 | 18 | 31.1 | 16.3 | 10.2 | 11.2
CN(CCN1CCCC1)c1ccc(N/C=C2\C(=O)NC(=O)c3ccc(Br)cc32)cc1 [Example 864, (4Z)-6-Bromo-4-[({4-[methyl(2-pyrrolidin-1-ylethyl)amino]phenyl}amino)methylene]isoquinoline-1,3(2H,4H)-dione] | 2.5 | > 50 | > 50 | 7.9 | 3.6 | 3.8 | 3.1

Further lines, with some results ahead:

IC50 [1] [µM] | IC50 [3] [µM] | IC50 [5] [µM] | Structure (SMILES) | IC50 [2] [µM] | IC50 [4] [µM] | IC50 [6] [µM] | IC50 [7] [µM]
0.02 | > 50 | 36.3 | COc1ccc(CNC=C2C(=O)NC(=O)c3ccc(C=Cc4ccccc4)cc32)cc1O [Example 825, 4-[(3-Hydroxy-4-methoxy-benzylamino)-methylene]-6-styryl-4H-isoquinoline-1,3-dione] | 24.7 | 12.3 | 22.1 | 11.9
0.12 | > 50 | 45.5 | COc1ccc(CNC=C2C(=O)NC(=O)c3ccc(C=CCc4cccc(OC)c4O)cc32)cc1O [Example 827, 4-[(3-Hydroxy-4-methoxy-benzylamino)-methylene]-6-[3-(2-hydroxy-3-methoxy-phenyl)-propenyl]-4H-isoquinoline-1,3-dione] | 26.5 | 17.5 | 18.1 | 10.8
0.01 | 34.7 | 25.9 | COc1ccc(CNC=C2C(=O)NC(=O)c3ccc(-c4ccccc4)cc32)cc1O [Example 832, 4-[(3-Hydroxy-4-methoxy-benzylamino)-methylene]-6-phenyl-4H-isoquinoline-1,3-dione] | 14.9 | 11.8 | 8.5 | 9.9
0.01 | > 50 | 15.1 | COc1ccc(-c2ccc3c(c2)C(=CNCc2ccc(OC)c(O)c2)C(=O)NC3=O)cc1 [Example 833, 4-[(3-Hydroxy-4-methoxy-benzylamino)-methylene]-6-(4-methoxy-phenyl)-4H-isoquinoline-1,3-dione] | 25.1 | 26.5 | 19.2 | 16.9
0.04 | 35.5 | 40.6 | COc1ccc(CNC=C2C(=O)NC(=O)c3ccc(-c4ccc5[nH]ccc5c4)cc32)cc1O [Example 835, 4-[(3-Hydroxy-4-methoxy-benzylamino)-methylene]-6-(1H-indol-5-yl)-4H-isoquinoline-1,3-dione] | 11.7 | 12.6 | 11.3 | 10
0.01 | 28.3 | 15.4 | COc1ccc(CNC=C2C(=O)NC(=O)c3ccc(-c4ccc[nH]4)cc32)cc1O [Example 836, 4-[(3-Hydroxy-4-methoxy-benzylamino)-methylene]-6-(1H-pyrrol-2-yl)-4H-isoquinoline-1,3-dione] | 12.8 | 17.7 | 6.8 | 12.7
0.02 | > 50 | 24.2 | COc1ccc(CNC=C2C(=O)NC(=O)c3ccc(-c4ccco4)cc32)cc1O [Example 837, 6-Furan-2-yl-4-[(3-hydroxy-4-methoxy-benzylamino)-methylene]-4H-isoquinoline-1,3-dione] | 1.5 | 3.6 | 8.5 | 10.6
0.15 | 45.5 | 23.6 | O=C1NC(=O)c2ccc(-c3ccc[nH]3)cc2C1=CNc1ccc(CN2CCCC2)cc1 [Example 838, 4-[(4-Pyrrolidin-1-ylmethyl-phenylamino)-methylene]-6-(1H-pyrrol-2-yl)-4H-isoquinoline-1,3-dione] | 23.5 | 8.2 | 17.2 | 7.2
0.18 | > 50 | > 50 | COCCn1ccc(-c2ccc3c(c2)C(=CNc2ccc(N4CCN(C)CC4)cc2)C(=O)NC3=O)c1 [Example 843, 6-[1-(2-Methoxy-ethyl)-1H-pyrrol-3-yl]-4-{[4-(4-methyl-piperazin-1-yl)-phenylamino]-methylene}-4H-isoquinoline-1,3-dione] | > 50 | 47.1 | > 50 | 54.3
0.31 | > 50 | > 50 | CCN(CC)CCn1ccc2cc(-c3ccc4c(c3)C(=CNc3ccc(N5CCN(C)CC5)cc3)C(=O)NC4=O)ccc21 [Example 852, 6-[1-(2-Diethylamino-ethyl)-1H-indol-5-yl]-4-{[4-(4-methyl-piperazin-1-yl)-phenylamino]-methylene}-4H-isoquinoline-1,3-dione] | > 50 | 46.3 | > 50 | > 50
